In patent publication US20230135894A1, “MK2 DEGRADERS AND USES THEREOF” (Kymera Therapeutics, Inc., priority 2021, published 2023):

Columns and labels:
MK2 [1] = target: T1, MK2 (Homo sapiens, UniProt P49137); test: MK2 degradation in human SW1353 cells (MSD, 24 h); format: cell-based; set-up: endogenous in cells; host or cells: SW-1353 (ATCC HTB-94); key to MK2 MSD SW1353 degradation 24 h GMean External Abs DC50: A (<0.001 μM); B (0.001-0.01 μM); C (0.01-0.1 μM); D (>0.1 μM); —: “-”=not tested or inactive; key to MK2 MSD SW 1353 24 h Dmax %: —: “-”=not tested or inactive; conditions: for Dmax: read-out: MK2 MSD SW 1353 24 h Dmax %; for DC50: read-out: MK2 MSD SW1353 degradation 24 h GMean External Abs DC50
Method in brief: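 DC50 derived by 4-parameter logistic fit, with DMSO-treated signal as top and lysis-buffer signal as bottom. Remaining MK2 was measured by MSD electrochemiluminescent sandwich assay in RIPA lysates of human SW1353 cells exposed for 24 h at 37 °C to serially diluted compound in 0.1% DMSO.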

MK2 [2] = target: T1, MK2; test: MK2 degradation in human THP-1 monocytic cells (MSD, 24 h); format: cell-based; set-up: endogenous in cells; conditions: for Dmax: THP-1, THP-1 cells; for DC50: THP-1 cells, read-out: MK2 MSD THP-1 degradation 24 h GMean External Abs DC50
Method in brief: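 Readout: residual MK2 protein in THP-1 lysates, measured by MSD electrochemiluminescence sandwich assay after 24 h compound exposure (≤10-point serial dilutions, 0.1% DMSO, 37 °C). Curves normalised between lysis-buffer and DMSO-cell signals; DC50 by 4-parameter logistic fit.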

T1 sequence (P49137 whole entry): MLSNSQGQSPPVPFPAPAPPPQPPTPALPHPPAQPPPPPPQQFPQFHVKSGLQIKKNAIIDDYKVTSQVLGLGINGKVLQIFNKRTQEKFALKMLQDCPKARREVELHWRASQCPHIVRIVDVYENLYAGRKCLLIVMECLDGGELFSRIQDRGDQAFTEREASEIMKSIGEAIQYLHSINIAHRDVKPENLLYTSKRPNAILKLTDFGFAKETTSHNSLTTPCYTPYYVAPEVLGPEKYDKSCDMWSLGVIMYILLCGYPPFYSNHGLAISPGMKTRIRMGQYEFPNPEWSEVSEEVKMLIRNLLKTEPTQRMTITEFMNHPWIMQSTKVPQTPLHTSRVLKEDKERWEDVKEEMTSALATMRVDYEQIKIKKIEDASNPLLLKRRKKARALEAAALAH

| Compound | Dmax (MK2 [1]) [%] | DC50 (MK2 [1]) [nM] | Dmax (MK2 [2]) [%] | DC50 (MK2 [2]) [nM] | MK2 MSD SW1353 degradation 24 h GMean External Abs DC50 (MK2 [1]) | MK2 MSD SW 1353 24 h Dmax % (MK2 [1]) |
| --- | --- | --- | --- | --- | --- | --- |
| C[C@@H]1CNc2c(sc3ccc4nc(-c5ccc(N6CCC(CN7CCC(c8cccc9c8n(C)c(=O)n9C8CCC(=O)NC8=O)CC7)CC6)cc5)ccc4c23)C(=O)N1 (stereo partly drawn) [Compound I-98] | > 75 | < 1 | > 75 | < 1 |  |  |
| Cn1c(=O)n(C2CCC(=O)NC2=O)c2cccc(CCCCCCCCN3CCC4(CC3)CNC(=O)c3c4[nH]c4c3CCc3cnc(-c5ccccc5F)cc3-4)c21 (stereo not drawn) [Compound I-309] |  | > 100 | < 50 | > 100 |  | — |
| Cn1c(=O)n(C2CCC(=O)NC2=O)c2cccc(CCCCN3CC4(CCN(c5ccc6c(c5)Cn5cc(-c7ccc(F)cc7)cc5-c5nccn5-6)C4)C3)c21 (stereo not drawn) [Compound I-167] | < 50 | > 100 | < 50 | > 100 |  |  |
| Cn1c(=O)n(C2CCC(=O)NC2=O)c2cccc(CCCN3CCN(c4ccc(-c5cc(-c6cc7c([nH]6)C6(CCC6)CNC7=O)ccn5)cc4)CC3)c21 (stereo not drawn) [Compound I-204] |  |  | > 75 | 1 to 10 | — | — |
| Cn1c(=O)n(C2CCC(=O)NC2=O)c2cccc(C3CCN(CC4CCN(c5ccc(-c6cc(-c7cc8c([nH]7)CCNC8=O)ccn6)c(F)c5)CC4)CC3)c21 (stereo not drawn) [Compound I-137] | > 75 | < 1 | > 75 | 1 to 10 |  |  |
| Cc1cc(-c2cc(-c3cc4c([nH]3)CCNC4=O)ccn2)cc(C)c1N1CCN(CC2CCN(c3ccc4c(c3)n(C)c(=O)n4C3CCC(=O)NC3=O)CC2)CC1 (stereo not drawn) [Compound I-207] | > 75 |  | 50 to 75 | 1 to 10 | — |  |
| C[C@@H]1CNc2c(sc3ccc4nc(N5CC6CCC(C5)N6CC5CCN(c6cccc7c6n(C)c(=O)n7C6CCC(=O)NC6=O)CC5)ccc4c23)C(=O)N1 (stereo partly drawn) [Compound I-436] |  | > 100 | < 50 | > 100 |  | — |
| C[C@@H]1CNc2c(sc3ccc4nc(-c5cncc(N6CCN(CCCCCCCc7cccc8c7n(C)c(=O)n8C7CCC(=O)NC7=O)CC6)c5)ccc4c23)C(=O)N1 (stereo partly drawn) [Compound I-158] | > 75 | 1 to 10 | > 75 | < 1 |  |  |
| C[C@@H]1CNc2c(sc3ccc4nc(-c5cccc(C#CCCNC(=O)CCCCCCCc6cccc7c6n(C)c(=O)n7C6CCC(=O)NC6=O)c5)ccc4c23)C(=O)N1 (stereo partly drawn) [Compound I-48] | > 75 | 1 to 10 | > 75 | 10 to 100 |  |  |
| C[C@@H]1CNc2c(sc3ccc4nc(-c5cccc(N6CCN(C(=O)COCCOCCc7cccc8c7n(C)c(=O)n8C7CCC(=O)NC7=O)CC6)c5)ccc4c23)C(=O)N1 (stereo partly drawn) [Compound I-34] | > 75 | < 1 | > 75 | < 1 |  |  |
| CC(C)c1cc(-c2ccc3c(ccc4sc5c(c43)NC[C@@H](C)NC5=O)n2)cc(N2CCN(CC3CCN(c4ccc5c(c4)n(C)c(=O)n5C4CCC(=O)NC4=O)CC3)CC2)c1 (stereo partly drawn) [Compound I-231] | > 75 | 1 to 10 | > 75 | 1 to 10 |  |  |
| C[C@@H]1CNc2c(sc3ccc4nc(-c5ccc(N6CCC(CN7CCC(c8cccc9c8n(C)c(=O)n9C8CCC(=O)NC8=O)CC7)CC6)nc5)ccc4c23)C(=O)N1 (stereo partly drawn) [Compound I-99] | > 75 | < 1 | > 75 | < 1 |  |  |
| Cn1c(=O)n(C2CCC(=O)NC2=O)c2ccc(N3CCC(CN4CCN(c5cc(C#N)cc(-c6cc(-c7cc8c([nH]7)CCNC8=O)ccn6)c5)CC4)CC3)cc21 (stereo not drawn) [Compound I-225] | < 50 | > 100 | < 50 | > 100 |  |  |
| Cc1cc(N2CCN(CC3CCN(c4ccc5c(c4)n(C)c(=O)n5C4CCC(=O)NC4=O)CC3)CC2)ccc1-c1cc(-c2cc3c([nH]2)C2(CC2)CNC3=O)ccn1 (stereo not drawn) [Compound I-217] | < 50 | > 100 | < 50 | > 100 |  |  |

The next lines start with results.

| Dmax (MK2 [1]) [%] | DC50 (MK2 [1]) [nM] | Dmax (MK2 [2]) [%] | DC50 (MK2 [2]) [nM] | MK2 MSD SW1353 degradation 24 h GMean External Abs DC50 (MK2 [1]) | Compound | MK2 MSD SW 1353 24 h Dmax % (MK2 [1]) |
| --- | --- | --- | --- | --- | --- | --- |
| > 75 | 1 to 10 | > 75 | < 1 |  | C[C@@H]1CNc2c(sc3ccc4nc(-c5cnc(N6CCN(CC7CCN(c8cccc9c8n(C)c(=O)n9C8CCC(=O)NC8=O)CC7)CC6)nc5)ccc4c23)C(=O)N1 (stereo partly drawn) [Compound I-281] |  |
| > 75 | 1 to 10 | > 75 | 1 to 10 |  | C[C@@H]1CNc2c(sc3ccc4nc(-c5ccc(N6CCC(CN7CCC(c8cccc9c(N%10CCC(=O)NC%10=O)cncc89)CC7)CC6)cc5)ccc4c23)C(=O)N1 [Compound I-311] |  |
| > 75 | < 1 | > 75 | < 1 |  | C[C@@H]1CNc2c(sc3ccc4nc(-c5ccc(N6CCN(CCc7ccc8c(c7)n(C)c(=O)n8C7CCC(=O)NC7=O)CC6)cc5)ccc4c23)C(=O)N1 (stereo partly drawn) [Compound I-280] |  |
| > 75 | < 1 | > 75 | < 1 |  | Cn1c(=O)n(C2CCC(=O)NC2=O)c2ccc(N3CC(CN4CCN(c5ccc(-c6nccc(-c7cc8c([nH]7)C7(CCCC7)CNC8=O)n6)cc5)CC4)C3)cc21 (stereo not drawn) [Compound I-405] |  |
| > 75 | 1 to 10 | > 75 | 1 to 10 |  | COc1ccc2c(c1N1CCC(CN3CCN(c4ccc(-c5ccc6c(ccc7sc8c(c76)NC[C@@H](C)NC8=O)n5)cn4)CC3)CC1)n(C)c(=O)n2C1CCC(=O)NC1=O (stereo partly drawn) [Compound I-255] |  |
| > 75 | 1 to 10 | 50 to 75 | 1 to 10 |  | Cn1c(=O)n(C2CCC(=O)NC2=O)c2cccc(CCCN3CCN(c4ccc(-c5cc(-c6cc7c([nH]6)C6(CC6)CNC7=O)ccn5)cc4)CC3)c21 (stereo not drawn) [Compound I-241] |  |
| > 75 | < 1 | 50 to 75 | < 1 |  | Cc1cc(N2CCN(CC3CN(c4ccc5c(c4)n(C)c(=O)n5C4CCC(=O)NC4=O)C3)CC2)ncc1-c1ccc2c(ccc3sc4c(c32)NC[C@@H](C)NC4=O)n1 (stereo partly drawn) [Compound I-250] |  |
| > 75 | 1 to 10 | > 75 | < 1 |  | C[C@@H]1CNc2c(sc3ccc4nc(-c5ccc(N6CCN(CC7CN(c8cccc9c8n(C)c(=O)n9C8CCC(=O)NC8=O)C7)CC6)cc5)ccc4c23)C(=O)N1 (stereo partly drawn) [Compound I-269] |  |
| > 75 | 1 to 10 | > 75 | < 1 |  | C[C@@H]1CNc2c(sc3ccc4nc(-c5cnc(N6CCC(CN7CCN(c8cccc9c8n(C)c(=O)n9C8CCC(=O)NC8=O)CC7)CC6)nc5)ccc4c23)C(=O)N1 (stereo partly drawn) [Compound I-270] |  |
| > 75 | < 1 | > 75 | < 1 |  | Cn1c(=O)n(C2CCC(=O)NC2=O)c2ccc(N3CC(CN4CCN(c5ccc(-c6nccc(-c7cc8c([nH]7)C7(CC7)CNC8=O)n6)c(F)c5)CC4)C3)cc21 (stereo not drawn) [Compound I-403, 3-(5-(3-((4-(3-fluoro-4-(4-(4′-oxo-1′,4′,5′,6′-tetrahydrospiro[cyclopropane-1,7′-pyrrolo[3,2-c]pyridin]-2′-yl)pyrimidin-2-yl)phenyl)piperazin-1-yl)methyl)azetidin-1-yl)-3-methyl-2-oxo-2,3-dihydro-1H-benzo[d]imidazol-1-yl)piperidine-2,6-dionee] |  |
| > 75 | 1 to 10 | > 75 | < 1 |  | C[C@@H]1Cc2[nH]c(-c3ccnc(-c4ccc(N5CCN(CC6CCN(c7cccc8c7n(C)c(=O)n8C7CCC(=O)NC7=O)CC6)CC5)cc4)c3)cc2C(=O)N1 (stereo partly drawn) [Compound I-290] |  |
| > 75 | < 1 | > 75 | < 1 |  | C[C@@H]1CN(C)c2c(sc3ccc4nc(-c5ccc(N6CCN(CC7CN(c8ccc9c(c8)n(C)c(=O)n9C8CCC(=O)NC8=O)C7)CC6)nc5)ccc4c23)C(=O)N1 (stereo partly drawn) [Compound I-412] |  |
| > 75 | 1 to 10 | > 75 | 1 to 10 |  | C[C@@H]1CN(C)c2c(sc3ccc4nc(-c5ccc(N6CCN(CC7CCN(c8ccc9c(c8)n(C)c(=O)n9C8CCC(=O)NC8=O)CC7)CC6)nc5)ccc4c23)C(=O)N1 (stereo partly drawn) [Compound I-268] |  |
| > 75 | 1 to 10 | > 75 | 1 to 10 |  | C[C@@H]1CNc2c(sc3ccc4nc(-c5ccnc(N6CCN(CC7CCN(c8cccc9c8n(C)c(=O)n9C8CCC(=O)NC8=O)CC7)CC6)c5)ccc4c23)C(=O)N1 (stereo partly drawn) [Compound I-276] |  |
| > 75 | < 1 | > 75 | < 1 |  | C[C@@H]1CNc2c(sc3ccc4nc(-c5ccnc(N6CCN(CC7CCN(c8ccc9c(c8)n(C)c(=O)n9C8CCC(=O)NC8=O)CC7)CC6)c5)ccc4c23)C(=O)N1 (stereo partly drawn) [Compound I-278] |  |
| > 75 | 10 to 100 | > 75 | 1 to 10 |  | Cc1ccc(NC(=O)c2cccc(C(F)(F)F)c2)cc1N1Cc2cnc(Nc3ccc(N4CCN(CCCCCC(=O)N[C@H](C(=O)N5C[C@H](O)C[C@H]5C(=O)N[C@@H](C)c5ccc(-c6scnc6C)cc5)C(C)(C)C)CC4)nc3)nc2N(C)C1=O [Compound I-462] |  |
